Data from patent US7138361B2, “Herbicidal heterocycles” (E. I. du Pont de Nemours and Company, priority 2000, dated 2006).

Legend:
Type in all cases: in vivo
[1] = system: smallflower flatsedge (Cyperus difformis); experiment: Test B flooded paddy test; conditions: Rate 1000 g/ha, scale of 0 to 100 where 0 is no effect and 100 is complete control, visually evaluated after 13 to 15 days
How it was run: (§1)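 2-leaf plants, flooded paddy; greenhouse 13–15 d post-treatment; visual rating vs controls, 0–100 scale (0 = no effect, 100 = complete control); dash = no result.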

[2] = system: duck salad (Heteranthera limosa); experiment: Test B flooded paddy test; conditions: Rate 1000 g/ha, scale of 0 to 100 where 0 is no effect and 100 is complete control, visually evaluated after 13 to 15 days
How it was run: as §1

[3] = system: barnyardgrass (Echinochloa crus-galli); experiment: Test B flooded paddy test; conditions: Rate 1000 g/ha, scale of 0 to 100 where 0 is no effect and 100 is complete control, visually evaluated after 13 to 15 days
How it was run: as §1

[4] = system: rice (Oryza saliva); experiment: Test B flooded paddy test; conditions: Rate 1000 g/ha, scale of 0 to 100 where 0 is no effect and 100 is complete control, visually evaluated after 13 to 15 days
How it was run: as §1

[5] = system: goosegrass (Eleusine indica); experiment: Test C postemergence
How it was run: (§2)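 Preemergence: seeds sown then treated. Postemergence: plants 2–18 cm, 1- to 4-leaf. Both with surfactant-containing solvent formulation; visual injury scored 0–100 after 12–14 d.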

[6] = system: soybean (Glycine max); experiment: Test C postemergence
How it was run: as §2

[7] = system: johnsongrass (Sorghum halepense); experiment: Test C postemergence
How it was run: as §2

[8] = system: giant foxtail (Setaria faberii); experiment: Test C postemergence
How it was run: as §2

[9] = system: common ragweed (Ambrosia elatior); experiment: Test C postemergence
How it was run: as §2

[10] = system: crabgrass (Digitaria sanguinalis); experiment: Test C postemergence
How it was run: as §2

[11] = system: bermudagrass (Cynodon dactylon); experiment: Test C postemergence
How it was run: as §2

[12] = system: velvetleaf (Abutilon theophrasti); experiment: Test C postemergence
How it was run: as §2

[13] = system: corn (Zea mays); experiment: Test C postemergence
How it was run: as §2

[14] = system: kochia (Kochia scoparia); experiment: Test C postemergence
How it was run: as §2

[15] = system: chickweed (Stellaria media); experiment: Test C postemergence
How it was run: as §2

[16] = system: pigweed (Amaranthus retroflexus); experiment: Test C postemergence
How it was run: as §2

[17] = system: Surinam grass (Brachiaria decumbens); experiment: Test C postemergence
How it was run: as §2

[18] = system: cocklebur (Xanthium strumarium); experiment: Test C postemergence
How it was run: as §2

[19] = system: lambsquarters (Chenopodium album); experiment: Test C postemergence
How it was run: as §2

[20] = system: yellow nutsedge (Cyperus esculentus); experiment: Test C postemergence
How it was run: as §2

[21] = system: Sunflower; experiment: Test C preemergence; conditions: Rate 31 g/ha, scale 0 to 100
[22] = system: common ragweed (Ambrosia elatior); experiment: Test C preemergence
How it was run: as §2

[23] = Rate 125 g/ha, scale 0 to 100, 0 no effect, 100 complete control
[24] = Rate 250 g/ha, scale 0 to 100 (0 no effect, 100 complete control)
[25] = Rate 62 g/ha, scale 0 to 100, 0 no effect, 100 complete control
[26] = Rate 500 g/ha, scale 0 to 100 (0 no effect, 100 complete control)

CCC(C)c1ccn(C2SCN(c3cccc(C(F)(F)F)c3)C2=O)n1 (centres unmarked) [Compound 20]
Plant response rating, Flatsedge [1]: 100 | Plant response rating, Ducksalad [2]: 100 | Plant response rating, Barnyardgrass [3]: 100 | Plant response rating, Rice [4]: 100 | Plant response rating, Goosegrass [5, 23]: 20 | Plant response rating, Goosegrass [5, 24]: 40 | Plant response rating, Soybean [6, 23]: 20 | Plant response rating, Soybean [6, 24]: 20 | Plant response rating, Johnsongrass [7, 23]: 0 | Plant response rating, Johnsongrass [7, 24]: 80 | Plant response rating, Foxtail, Giant [8, 23]: 0 | Plant response rating, Foxtail, Giant [8, 24]: 70 | Plant response rating, Ragweed, Common [9, 23]: 30 | Plant response rating, Ragweed, Common [9, 24]: 30 | Plant response rating, Crabgrass [10, 23]: 0 | Plant response rating, Crabgrass [10, 24]: 0 | Plant response rating, Bermudagrass [11, 25]: 60 | Plant response rating, Bermudagrass [11, 23]: 90 | Plant response rating, Bermudagrass [11, 24]: 90 | Plant response rating, Velvetleaf [12, 23]: 30 | Plant response rating, Velvetleaf [12, 24]: 30 | Plant response rating, Corn [13, 23]: 0 | Plant response rating, Corn [13, 24]: 0 | Plant response rating, Kochia [14, 23]: 70 | Plant response rating, Kochia [14, 24]: 70 | Plant response rating, Chickweed [15, 25]: 50 | Plant response rating, Chickweed [15, 23]: 50 | Plant response rating, Chickweed [15, 24]: 70 | Plant response rating, Pigweed [16, 23]: 70 | Plant response rating, Pigweed [16, 24]: 80 | Plant response rating, Surinam grass [17, 25]: 0 | Plant response rating, Surinam grass [17, 23]: 0 | Plant response rating, Surinam grass [17, 24]: 0 | Plant response rating, Cocklebur [18, 24]: 60 | Plant response rating, Lambsquarters [19, 23]: 70 | Plant response rating, Lambsquarters [19, 24]: 80 | Plant response rating, Nutsedge [20, 23]: 0 | Plant response rating, Nutsedge [20, 24]: 0

O=C1C(n2ccc(C3CC3)n2)OCN1c1cccc(C(F)(F)F)c1 (centres unmarked) [Compound 28]
Plant response rating, Sunflower [21]: 0 | Plant response rating, Flatsedge [1]: 100 | Plant response rating, Ducksalad [2]: 100 | Plant response rating, Barnyardgrass [3]: 100 | Plant response rating, Rice [4]: 50

CCC(CC)c1ccn(C2SCN(c3cccc(C(F)(F)F)c3)C2=O)n1 (centres unmarked) [Compound 25]
Plant response rating, Ragweed, Common ([22]; Preemergence, Rate 500 g/ha, scale 0 to 100): 100 | Plant response rating, Ragweed, Common [22, 25]: 70 | Plant response rating, Ragweed, Common ([22]; preemergence, Rate 31 g/ha, scale 0 to 100): 0 | Plant response rating (0 to 100), Ragweed, Common ([22]; preemergence, Rate 250 g/ha, visual evaluation after 12 to 14 days): 70 | Plant response rating, Ragweed, Common ([22]; preemergence, Rate 125 g/ha, scale 0 to 100, 0 no effect, 100 complete control): 70 | Plant response rating, Sunflower [21]: 0 | Plant response rating, Flatsedge [1]: 100 | Plant response rating, Ducksalad [2]: 100 | Plant response rating, Barnyardgrass [3]: 100 | Plant response rating, Rice [4]: 90 | Plant response rating, Goosegrass [5, 23]: 20 | Plant response rating, Goosegrass [5, 24]: 60 | Plant response rating, Goosegrass [5, 26]: 60 | Plant response rating, Soybean [6, 23]: 20 | Plant response rating, Soybean [6, 24]: 30 | Plant response rating, Soybean [6, 26]: 30 | Plant response rating, Johnsongrass [7, 23]: 20 | Plant response rating, Johnsongrass [7, 24]: 50 | Plant response rating, Johnsongrass [7, 26]: 90 | Plant response rating, Foxtail, Giant [8, 23]: 30 | Plant response rating, Foxtail, Giant [8, 24]: 80 | Plant response rating, Foxtail, Giant [8, 26]: 90 | Plant response rating, Ragweed, Common [9, 23]: 0 | Plant response rating, Ragweed, Common [9, 24]: 30 | Plant response rating, Ragweed, Common [9, 26]: 40 | Plant response rating, Crabgrass [10, 23]: 30 | Plant response rating, Crabgrass [10, 24]: 70 | Plant response rating, Crabgrass [10, 26]: 90 | Plant response rating, Bermudagrass [11, 25]: 60 | Plant response rating, Bermudagrass [11, 23]: 70 | Plant response rating, Bermudagrass [11, 24]: 90 | Plant response rating, Bermudagrass [11, 26]: 90 | Plant response rating, Velvetleaf [12, 23]: 40 | Plant response rating, Velvetleaf [12, 24]: 50 | Plant response rating, Velvetleaf [12, 26]: 50 | Plant response rating, Corn [13, 23]: 0 | Plant response rating, Corn [13, 24]: 20 | Plant response rating, Corn [13, 26]: 30 | Plant response rating, Kochia [14, 23]: 70 | Plant response rating, Kochia [14, 24]: 70 | Plant response rating, Kochia [14, 26]: 70 | Plant response rating, Chickweed [15, 25]: 60 | Plant response rating, Chickweed [15, 23]: 70 | Plant response rating, Chickweed [15, 24]: 80 | Plant response rating, Chickweed [15, 26]: 90 | Plant response rating, Pigweed [16, 23]: 90 | Plant response rating, Pigweed [16, 24]: 100 | Plant response rating, Pigweed [16, 26]: 100 | Plant response rating, Surinam grass [17, 25]: 0 | Plant response rating, Surinam grass [17, 23]: 0 | Plant response rating, Surinam grass [17, 24]: 0 | Plant response rating, Surinam grass [17, 26]: 0 | Plant response rating, Cocklebur [18, 23]: 60 | Plant response rating, Cocklebur [18, 24]: 60 | Plant response rating, Cocklebur [18, 26]: 60 | Plant response rating, Lambsquarters [19, 23]: 90 | Plant response rating, Lambsquarters [19, 24]: 100 | Plant response rating, Lambsquarters [19, 26]: 100 | Plant response rating, Nutsedge [20, 23]: 0 | Plant response rating, Nutsedge [20, 24]: 0 | Plant response rating, Nutsedge [20, 26]: 0
